This is an account of results in patent publication US5656449A, “Neutral unsymmetrical cyanine dyes” (Molecular Probes, Inc., priority 1995, dated 1997).

Structures can show the parent of a compound that is named as a salt.

Test [1] has as its system cells. The settings on record: background art; cited from earlier work.
Test [2] relates to Lambda DNA/Hind III fragments. Briefly: Staining of nucleic acids in electrophoresis gels. To be noted: for detection limit in DNA gel: 1% agarose/TBE minigel, 1 μM dye in 1XTBE, 30 minutes. As to the method:
Two separate 1% agarose/TBE (89 mM tris-borate, 2 mM EDTA) minigels are loaded with Lambda DNA/Hind III fragments in a 3-fold serial dilution series of 1 μg, 333 ng, 111 ng, 37.0 ng, 12.4 ng 4.1 ng, 1.4ng. 0.5 ng, 0.2 ng, and 0.05 ng per lane. After the gels are subjected to electrophoresis, the gels are stained with either Dye 510 or Dye 798, as a 1 μM solution in 1XTBE for 30 minutes.
After staining, each gel is illuminated at 254 nm using an epi-illuminator.Gels are photographed with POLAROID 667 black and white print film, Dye 798 stains the gel with a detection limit of 350 pg/band, while Dye 510 stains the gel with a detection limit of 180 pg/band.

Test [3] deals with rat basophilic leukemia (RBL) cells. Briefly: Rate of dye uptake in live cells. Format: cell-based. The settings on record: 1 μM-scale dye (3 μL of 1 mM in 3 mL), excited at 490 nm, emission 520 nm; ±~2 sec. How it is done: Dye uptake data were acquired using rat basophilic leukemia (RBL) cells. A suspension of RBL cells at a concentration of 1×10^6 cells/mL is prepared in room-temperature HEPES-buffered Tyrode's buffer containing 0.1% bovine serum albumin. Three μL of a 1 mM dye solution (in DMSO) is added at T=0 to an acrylic, 1 cm pathlength fluorescence cuvette containing 3 mL of the previously prepared RBL cell suspension. The suspension is then stirred continuously with a Teflon-coated magnetic stir bar. The samples are excited at 490 nm, and the fluorescence emission of the suspension at 520 nm is measured at 200 msec intervals for at least 5 minutes. The T1/2 value represents the time, in seconds, required for the fluorescence of the suspension to reach an intensity half-way between basal fluorescence level and peak fluorescence (±~2 sec).

For test [4], the system named is Saccharomyces cerevisiae. As to the kind of experiment: Viability determination of cultured yeast. Format: cell-based. To be noted: 1 μM dye, 15 minutes, 490 nm-excited. How it is done: A culture of Saccharomyces cerevisiae is grown in 75 mL of yeast extract-peptone-dextrose (YPD) broth for 2 weeks at 30° C., shaking at 200 rpm in a capped 250 mL Erlenmeyer flask. A 2 mL sample is taken aseptically each day. One mL of this sample is serially diluted in sterile 2% glucose solution and 0.1 mL plated on YPD agar in standard r 100 mm petri dishes. Yeast numbers in the dilution samples having visible turbidity are quantified using a Petroff-Hauser counting chamber. The other 1 mL of the sample is centrifuged in a microcentrifuge at 5,000 rpm for 5 minutes, and resuspended in 100 μL of 1 μM Dye 509 in 2% sterile dextrose solution. After incubation for 15 minutes with the dye, the sample is diluted to 3 mL and the 490 nm-excited […] fluorescence is measured relative to a series of standard fluorescein solutions spanning a 10,000-fold range in fluorescence.

Test [5] relates to NIH 3T3 fibroblasts. As to the kind of experiment: Discrimination of plasma membrane-compromised fibroblasts. Format: cell-based. To be noted: 0.1 or 1.0 μM dye, 5 minutes. As to the method: NIH 3T3 fibroblasts are grown to 75% confluency on 18 mm^2 glass coverslips under standard tissue culture conditions. Coverslips of 3T3 cells are exposed to 0.0001% to 0.1% saponin in HEPES-buffered complete saline solution (HBSS) for 10 minutes at room temperature and subsequently rinsed into HBSS containing 0.1 or 1.0 μM Dye 4100. After incubation for 5 minutes, coverslips are washed with HBSS and mounted on glass microscope slides using glass coverslips as spacers to avoid crushing the cells. The cell fluorescence is observed in the epi-fluorescence microscope using a 40X 0.85 NA objective lens and a standard rhodamine long-pass filter set (546 nm excitation/580 nm emission).

The mark [6] stands for this setting: illumination at 254 nm, 1 μM dye.

`CN1C(=Cc2cc[n+](C)c3ccccc23)Sc2ccccc21` [Thiazole Orange, reference compound]: the staining of cells result in test [1] is reported as “readily stains many mammalian cells, yet does not effectively stain some eukaryotic cells”. Also, in test [2] (illumination of 254 nm, comparison dye), the “limit of detection in DNA gel” value is 1-2 ng/band. In addition, the “T1/2 for cell loading” value in test [3] worked out at 9 s.
On to `CCN1C(=Cc2cc(Sc3ccccc3)nc3ccccc23)Sc2ccccc21` [Dye 509], for which, in test [4], the “fluorescence at 520 nm with increasing proportion of dead cells” value is listed as “increase in fluorescence at 520 nm”.
`Cc1cc(C=C2Sc3ccccc3N2C)c2ccccc2n1` [Dye 523-2]: the “T1/2 for cell loading” value in test [3] was 1 s.
Still for that read-out and setting: for `CN1C(=Cc2ccnc3ccccc23)Oc2ccccc21` [Dye 799] the value was 2 s.
In the case of `CCN(CC)c1cc(C=C2Sc3ccccc3N2CC)c2ccccc2n1` [Dye 510], in test [2] (illumination at 254 nm), the “detection limit in DNA gel” value worked out at 180 pg/band. Also, the “fluorescence colour of stained DNA-containing bands” value in test [2] (setting [6]) is given as “blue-green fluorescence”.
As for `CN1C(=Cc2ccncc2)Sc2ccccc21` [Dye 7101], the “T1/2 for cell loading” value in test [3] was found to be 7 s.
For `CN1C(=Cc2ccnc3ccccc23)Sc2ccccc21` [Dye 798, 4-(2,3-dihydro-3-methyl-(benzo-1,3-thiazol-2-yl)-methylidine)-quinolinium tosylate], the “detection limit in DNA gel” value in test [2] (illumination at 254 nm) came out at 350 pg/band. Also, in test [2] (setting [6]), the “background staining of gel” value was “no observable background staining” and the “fluorescence colour of stained DNA-containing bands” value was “blue-green fluorescence”. Further, the “T1/2 for cell loading” value in test [3] turned out to be 3 s.
Consider `CCN1C(=Cc2cc(-c3ccccc3)nc3ccccc23)Sc2ccccc21` [Dye 4100], for which, in test [5] (0.0001% to 0.1% saponin), the “staining of cells with compromised plasma membranes” value was “stain brightly”. Further, in test [5], the “staining of untreated 3T3 cells” value is “virtually unstained”.
On to `CCN1C(=Cc2ccnc3ccccc23)Sc2ccccc21` [Dye 1266], for which, in test [3], the “T1/2 for cell loading” value is 2 s.
Consider `Cc1cc(C=C2Sc3ccccc3N2C)nc2ccccc12` [Dye 523-1], for which, in test [3], the “T1/2 for cell loading” value is 41 s.
On the same count and under the same terms, for `CCCCc1cc(C=C2Sc3ccccc3N2CC)c2ccccc2n1` [Dye 1268] the value was 3 s.
